Results taken from patent US20240140986A1, “SYNTHETIC URSOLIC ACID DERIVATIVES AND METHODS OF USE THEREOF” (REATA PHARMACEUTICALS, INC., priority 2021, published 2024).
Like-named read-outs stand apart in the source and are kept apart here.

Key:
[1] = tested on: IFNγ-induced NO production in RAW 264.7 cells; experiment: Nitric Oxide Suppression Assay (IFNγ-induced NO, Griess nitrite readout); type: cell-based, mouse; settings: for IC50: Mus musculus; for Avg NO IC50 Relative to RTA402 (fold): Table 2, ratio to RTA402
Procedure: Tissue Culture: RAW 264.7, a mouse macrophage cell line, was obtained from American Type Culture Collection (Manassas VA) and maintained in the log phase of growth in Roswell Park Memorial Institute Medium 1640 (RPMI 1640) supplemented with 10% heat inactivated fetal bovine serum and 1% penicillin-streptomycin. Cells were cultured and maintained in a humidified incubator at 37° C. under 5% C02. Cells were sub-cultured every 2-4 days. All cell culture supplies were obtained from Life Technologies (Grand Island, NY) and VWR (Radnor, PA).
Nitric Oxide Suppression Assay. RAW 264.7 cells were plated 1 day in advance of experimental treatments at a concentration of 30,000 cells per well onto Falcon-96 well clear bottom plates (Corning, NY) in a total volume of 200 μL per well using RPMI 1640 supplemented with 0.5% fetal bovine serum and 1% penicillin-streptomycin. The next day, cells were pretreated with compounds serially diluted from 1000×stocks. All compounds were dissolved in dimethyl sulfoxide (DMSO) usually at 10 mM stock solutions. Compounds were subsequently diluted in DMSO and RPMI 1640. Each well received a final concentration of 0.1% DMSO. Cells were pretreated for 2 hours and incubation at 37° C., followed by treatment with 20 ng/mL of interferon gamma (R&D Systems, Minneapolis, MN) per well for 24 hours. The next day, a nitrite standard was serially diluted from 100 μM to 1.6 μM in RPMI 1640. Afterwards, 50 μL of cell culture supernatant was transferred from each well into a new Falcon-96 well clear bottom plate. Nitrite was measured as surrogate for nitric oxide using Promega's Griess Detection Kit #G2930 (Madison, WI) which involves the addition of 50 μL of the provided sulfanilamide solution to each well of the transferred cell culture supernatant and standards, followed by a 10-minute incubation at room temperature. Next, 50 μL of the provided N-1-napthylethylenediamine dihydrochloride (NED) solution was added to the sulfanilamide reaction and incubated for 10 minutes at room temperature in the dark. Afterwards, air bubbles were removed using ethanol vapor and absorbance was measured using a Spectramax M2e plate reader with a wavelength set to 525 nm. Viability was assessed using WST-1 cell proliferation reagent from Roche (Basel, Switzerland). After media was removed for the Nitric Oxide suppression assay, 15 μL of WST-1 reagent was added to each well of cells. Plates were briefly mixed on an orbital shaker and the cells were incubated at 37° C. for 30-90 minutes. Absorbance was measured using a Spectramax M2e plate reader with wavelengths set to 440 nm and 700 nm.
For the ability of compounds to suppress the increase in nitric oxide release caused by interferon gamma, the absolute amount of nitrite that was produced in each well was extrapolated from the nitrite standards using a linear regression fit. All values were then normalized to the DMSO-interferon gamma treated wells and plotted as percent nitric oxide. IC50 values were calculated using Excel and/or GraphPad Prism (San Diego, CA).

[2] = tested on: Nrf2 / ARE-dependent luciferase in AREc32 reporter cell line; experiment: AREc32 luciferase reporter activation (Nrf2 induction); type: cell-based, human; settings: for EC (2-fold): Homo sapiens, Arec32; for Relative Avg AREc32 EC2X Relative to RTA402 (fold): ratio to RTA402
Procedure: Effect on Ludferase Reporter Activation. Nrf2 is a transcription factor that binds to the antioxidant response element (ARE) sequence in the promoter regions of its target genes. AREc32 reporter cell line (derived from human breast carcinoma MCF7 cells) was obtained was from CXR Bioscience Limited (Dundee, UK) and cultured in DMEM (low glucose) supplemented with 10% FBS, 1% penicillin/streptomycin, and 0.8 mg/ml Geneticin (G418). This cell line is stably transfected with a luciferase reporter gene under the transcriptional control of eight copies of the rat GSTA2 ARE sequence (5′-GTGACAAAGCA-3′) (Wang et al., 2006). Expression of Firefly luciferase from this reporter plasmid is controlled by binding of Nrf2 to these ARE sequences. Measurement of ARE-dependent luciferase activity allows quantitative assessment of Nrf2 induction. AREc32 cell line has previously been used in studies characterizing different Nrf2 activators (Dinkova-Kostova & Wang, 2011; Roubalová et al., 2016; Roubalová et al, 2017; Wu et al, 2012).
The effect of several compounds disclosed herein on luciferase reporter activation was assessed in the AREc32 reporter cell line (see Table 10 and Table 11). This cell line is derived from human breast carcinoma MCF-7 cells and is stably transfected with a luciferase reporter gene under the transcriptional control of eight copies of the antioxidant response element from the rat Gsta2 gene, an Nrf2 target gene (Frilling et al., 1990). AREc32 cells were plated in black 96-well plates in 200 μL media at 20,000 cells per well. Twenty-four hours after plating, cells were treated with vehicle (DMSO) or test compounds at concentrations ranging from 0.03 to 1000 nM for nineteen hours. Media was removed and 100 μL of 1:1 mixture of the One-Glo Luciferase assay reagent and culture medium was added to each well. After incubation for 5 min at room temperature, the luminescence signal was measured on a PHERAstar plate reader. The EC2X value was determined using Excel and GraphPad Prism software. The fold increase in luminescence signal for cells treated with each concentration of compound relative to cells treated with vehicle was determined and a dose-response curve was generated. The dose-response curve was fit using nonlinear regression analysis and used to extrapolate the EC2X value. The EC2X value is defined as the concentration of test compound required to increase the luminescence signal 2-fold above levels in vehicle-treated samples.

[3] = RAW264.7, Table 2, RAW 264.7 cells, 2 h pretreatment, 20 ng/mL interferon gamma 24 h, read-out: Avg NO IC50 (nM) (Mean ± SD)
[4] = Table 2, concentration increasing luminescence 2-fold above vehicle, 19 h treatment, read-out: Avg AREc32 EC2X (nM) (Mean ± SD)
[5] = RAW264.7, Table 3, ursolic acid derivatives, read-out: Avg NO IC50 (nM) (Mean ± SD)
[6] = Table 3, ursolic acid derivatives, read-out: Avg ARE EC-2X (nM) (Mean ± SD)

IC50 [1, 3] [nM]	Avg NO IC50 Relative to RTA402 (fold) [1] [fold]	IC50 [1, 5] [nM]	IC50 ([1]; RAW264.7, Table 3, oleanolic acid derivative analogs, read-out: Avg NO IC50) [nM]	SMILES	EC (2-fold) [2, 4] [nM]	Relative Avg AREc32 EC2X Relative to RTA402 (fold) ([2]; Table 2)	EC (2-fold) [2, 6] [nM]	EC (2-fold) ([2]; Table 3, oleanolic acid derivative analogs, read-out: Avg ARE EC-2X) [nM]
18.2 ± 6.2	4.94 ± 1.78			C[C@@H]1[C@H]2[C@H]3C(=O)C=C4[C@@]5(C)C=C(C#N)C(=O)C(C)(C)[C@@H]5CC[C@@]4(C)[C@]3(C)CC[C@@]2(n2ccnn2)CC[C@H]1C [Compound T60]	8.89 ± 1.13	0.791 ± 0.111		
9.81 ± 2.79	3.18 ± 0.30	9.81 ± 2.79		C[C@@H]1[C@H]2[C@H]3C(=O)C=C4[C@@]5(C)C=C(C#N)C(=O)C(C)(C)[C@@H]5CC[C@@]4(C)[C@]3(C)CC[C@@]2(Cn2ccnn2)CC[C@H]1C [Compound T50]	8.26 ± 1.39	0.666 ± 0.148	8.26 ± 1.39	
8.79 ± 2.72	3.22 ± 0.99			C[C@@H]1[C@H]2[C@H]3C(=O)C=C4[C@@]5(C)C=C(C#N)C(=O)C(C)(C)[C@@H]5CC[C@@]4(C)[C@]3(C)CC[C@@]2(CN2CCNC2=O)CC[C@H]1C [Compound T45]	6.14 ± 1.47	0.563 ± 0.065		
16 ± 5	5.03 ± 1.61	16 ± 5		C[C@@H]1[C@H]2[C@H]3C(=O)C=C4[C@@]5(C)C=C(C#N)C(=O)C(C)(C)[C@@H]5CC[C@@]4(C)[C@]3(C)CC[C@@]2(N2CCOC2=O)CC[C@H]1C [Compound T59]	15.4 ± 1.2	1.23 ± 0.26	15.4 ± 1.2	
28.5 ± 6.5	7.09 ± 1.54			C[C@@H]1[C@H]2[C@H]3C(=O)C=C4[C@@]5(C)C=C(C#N)C(=O)C(C)(C)[C@@H]5CC[C@@]4(C)[C@]3(C)CC[C@@]2(C(=O)NC2CC2)CC[C@H]1C [Compound T86]	24.8 ± 6.4	2.12 ± 0.16		
25.8 ± 9.3	9.8 ± 5.7	25.8 ± 9.3		C[C@@H]1[C@H]2[C@H]3C(=O)C=C4[C@@]5(C)C=C(C#N)C(=O)C(C)(C)[C@@H]5CC[C@@]4(C)[C@]3(C)CC[C@@]2(CNCCO)CC[C@H]1C [Compound T40]	16.1 ± 1.5	1.2 ± 0.2	16.1 ± 1.5	
23.4 ± 5.4	8.76 ± 3.40	23.4 ± 5.4		C[C@@H]1[C@H]2[C@H]3C(=O)C=C4[C@@]5(C)C=C(C#N)C(=O)C(C)(C)[C@@H]5CC[C@@]4(C)[C@]3(C)CC[C@@]2(n2ccnc2)CC[C@H]1C [Compound T62]	19.7 ± 2	1.55 ± 0.28	19.7 ± 2	
15 ± 5.8	5.83 ± 1.26			C[C@@H]1[C@H]2[C@H]3C(=O)C=C4[C@@]5(C)C=C(C#N)C(=O)C(C)(C)[C@@H]5CC[C@@]4(C)[C@]3(C)CC[C@@]2(NC(=O)C(C)(F)F)CC[C@H]1C [Compound T17]	22.9 ± 2.6	1.92 ± 0.74		
12.9 ± 5.1	6.48 ± 0.96			COC(=O)C[C@]12CC[C@@H](C)[C@H](C)[C@H]1[C@H]1C(=O)C=C3[C@@]4(C)C=C(C#N)C(=O)C(C)(C)[C@@H]4CC[C@@]3(C)[C@]1(C)CC2 [Compound T88]	10.7 ± 3.2	1.03 ± 0.33		

The next lines start with the compound.

SMILES	IC50 [1, 3] [nM]	Avg NO IC50 Relative to RTA402 (fold) [1] [fold]	IC50 [1, 5] [nM]	IC50 ([1]; RAW264.7, Table 3, oleanolic acid derivative analogs, read-out: Avg NO IC50) [nM]	EC (2-fold) [2, 4] [nM]	Relative Avg AREc32 EC2X Relative to RTA402 (fold) ([2]; Table 2)	EC (2-fold) [2, 6] [nM]	EC (2-fold) ([2]; Table 3, oleanolic acid derivative analogs, read-out: Avg ARE EC-2X) [nM]
[2H]C([2H])([2H])C(=O)NC[C@]12CC[C@@H](C)[C@H](C)[C@H]1[C@H]1C(=O)C=C3[C@@]4(C)C=C(C#N)C(=O)C(C)(C)[C@@H]4CC[C@@]3(C)[C@]1(C)CC2 [Compound T24]	2.87 ± 1.67	0.967 ± 0.21	2.87 ± 1.67		1.49 ± 0.31	0.126 ± 0.026	1.49 ± 0.31	
C[C@@H]1[C@H]2[C@H]3C(=O)C=C4[C@@]5(C)C=C(C#N)C(=O)C(C)(C)[C@@H]5CC[C@@]4(C)[C@]3(C)CC[C@@]2(CN(C)C(=O)C(C)(F)F)CC[C@H]1C [Compound T38]	39.2 ± 4.2	9.52 ± 1.82			34.5 ± 7.6	2.76 ± 0.32		
C[C@@H]1[C@H]2[C@H]3C(=O)C=C4[C@@]5(C)C=C(C#N)C(=O)C(C)(C)[C@@H]5CC[C@@]4(C)[C@]3(C)CC[C@@]2(CNS(=O)(=O)C2CC2)CC[C@H]1C [Compound T33]	6.84 ± 1.59	2.32 ± 0.42			6.93 ± 1	0.621 ± 0.137		
CCS(=O)(=O)NC[C@]12CC[C@@H](C)[C@H](C)[C@H]1[C@H]1C(=O)C=C3[C@@]4(C)C=C(C#N)C(=O)C(C)(C)[C@@H]4CC[C@@]3(C)[C@]1(C)CC2 [Compound T32]	5.34 ± 1.15	2.52 ± 1.11			4.2 ± 1.3	0.399 ± 0.111		
CC1(C)CC[C@]2(CO)CC[C@]3(C)[C@H](C(=O)C=C4[C@@]5(C)C=C(C#N)C(=O)C(C)(C)[C@@H]5CC[C@]43C)[C@@H]2C1 [CC13, reference compound]				0.5				8.82
C[C@@H]1[C@H]2[C@H]3C(=O)C=C4[C@@]5(C)C=C(C#N)C(=O)C(C)(C)[C@@H]5CC[C@@]4(C)[C@]3(C)CC[C@@]2(CC(=O)NC2CC2)CC[C@H]1C [Compound T92]	5.97 ± 2.71	3.68 ± 1.63			4.33 ± 0.75	0.555 ± 0.181		
C[C@@H]1[C@H]2[C@H]3C(=O)C=C4[C@@]5(C)C=C(C#N)C(=O)C(C)(C)[C@@H]5CC[C@@]4(C)[C@]3(C)CC[C@@]2(CN2CCOC2=O)CC[C@H]1C [Compound T41]	5.41 ± 2.52	1.79 ± 0.77	5.41 ± 2.52		4.73 ± 2.12	0.354 ± 0.155	4.73 ± 2.12	
